The target of assay [1] is T1, human CA-IX (Homo sapiens, UniProt Q16790).
T1 construct: purchased Acro CA9-H82E3
Briefly: Surface Plasmon Resonance (SPR) binding kinetics to recombinant human CA-IX (Biacore 8K, single-cycle kinetics, 1:1 binding model). A digest of the protocol: (§1)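 Using captured protein at 1200-1800 RU, we injected compound at 100-0.39 nM in 1% DMSO buffer, pH 7.4, 25° C, then corrected curves for reference and DMSO to obtain rate constants.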
On the technique in general: Surface plasmon resonance follows binding to a sensor surface in real time, without labels.

Assay [2] deals with T2, human CA-XII (Homo sapiens, UniProt O43570).
T2 construct: purchased Creative BioMart CA12-261H
T2 sequence (O43570 25-354): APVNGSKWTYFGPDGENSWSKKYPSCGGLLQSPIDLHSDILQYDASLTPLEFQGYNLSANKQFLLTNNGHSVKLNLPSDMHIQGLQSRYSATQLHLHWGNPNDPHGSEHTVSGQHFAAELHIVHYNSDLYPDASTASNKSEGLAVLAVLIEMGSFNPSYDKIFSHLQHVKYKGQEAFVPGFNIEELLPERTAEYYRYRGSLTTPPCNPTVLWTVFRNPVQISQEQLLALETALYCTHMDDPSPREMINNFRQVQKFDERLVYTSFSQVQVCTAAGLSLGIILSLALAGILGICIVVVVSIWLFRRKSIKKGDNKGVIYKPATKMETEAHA
Nature of the assay: Surface Plasmon Resonance (SPR) binding kinetics to recombinant human CA-XII (Biacore 8K, single-cycle kinetics, 1:1 binding model). The method, boiled down:
as §1

The mark [3] stands for this setting: Chelated Metal: Lu-175; SPR, 25° C., pH 7.4; read-out: CAIX KD.
Where [4] appears, read: Chelated Metal: Lu-175, 25° C., pH 7.4, read-out: CAXII KD.

Like-named read-outs stand apart in the source and are kept apart here. A value given as a limit tells only on which side of the number the result lay.

As a reminder, the Kd is the free concentration of one partner at which half of the binding sites on the other are occupied at equilibrium, for simple one-to-one binding. Turning to `CC(CCC(=O)N[C@@H](CC(=O)N[C@@H](CCC(=O)N1CCN(C(=O)CN2CCN(CC(=O)O)CCN(CC(=O)O)CCN(CC(=O)O)CC2)C[C@H]1C(=O)NCCn1cc(C23CC(C(=O)Nc4nnc(S(N)(=O)=O)s4)(C2)C3)nn1)C(=O)O)C(=O)O)(c1ccc(O)cc1)c1ccc(O)cc1.[Lu+3]` [Compound 107.39], the values for the Kd in assay [1] (setting [3]) and in assay [2] (setting [4]) were below 1 nM and above 10 nM, respectively.
On to `CC(CCC(=O)N[C@@H](CC(=O)N[C@@H](CC(=O)N1CCN(C(=O)CN2CCN(CC(=O)O)CCN(CC(=O)O)CCN(CC(=O)O)CC2)C[C@H]1C(=O)NCCn1cc(C23CCC(C(=O)Nc4nnc(S(N)(=O)=O)s4)(CC2)C3)nn1)C(=O)O)C(=O)O)(c1ccc(O)cc1)c1ccc(O)cc1.[Lu+3]` [Compound 107.2], for which the Kd in assay [1] (setting [3]) and in assay [2] (setting [4]) was below 1 nM each time.
As for `CC(CCCC(=O)N1CCC(C(N)=O)(C(=O)NCC(=O)NC2(C(=O)NCCn3cc(C45CCC(C(=O)Nc6nnc(S(N)(=O)=O)s6)(CC4)CC5)nn3)CCN(C(=O)CN3CCN(CC(=O)O)CCN(CC(=O)O)CCN(CC(=O)O)CC3)CC2)CC1)(c1ccc(O)cc1)c1ccc(O)cc1.[Lu+3]` [Compound 117.6], the dissociation constant Kd is below 1 nM in assay [1] (setting [3]) and 1 to 2.5 nM in assay [2] (setting [4]).
On to `NS(=O)(=O)c1nnc(NC(=O)C23CC(c4cn(CCNC(=O)[C@@H]5CN(C(=O)CN6CCN(CC(=O)O)CCN(CC(=O)O)CCN(CC(=O)O)CC6)CCN5C(=O)C[C@H](NC(=O)C[C@H](NC(=O)C5CC6(C5)CC(F)(F)C6)C(=O)O)C(=O)O)nn4)(C2)C3)s1.[Lu+3]` [Compound 109.61], for which the Kd in assay [1] (setting [3]) was in the range of 1 to 2.5 nM; in assay [2] (setting [4]), 2.5 to 10 nM.
In the same order, the values of `CC(CCCC(=O)N1CCCC[C@H]1C(=O)N[C@@H](CC(=O)N1CCN(C(=O)CN2CCN(CC(=O)O)CCN(CC(=O)O)CCN(CC(=O)O)CC2)C[C@@H]1C(=O)NCCn1cc(C23CC(C(=O)Nc4nnc(S(N)(=O)=O)s4)(C2)C3)nn1)C(=O)O)(c1ccc(O)cc1)c1ccc(O)cc1.[Lu+3]` [Compound 109.40] are below 1 nM and above 10 nM.
For `CC(CCC(=O)N1CCOC[C@@H]1C(=O)N[C@@H](CC(=O)N1CCN(C(=O)CN2CCN(CC(=O)O)CCN(CC(=O)O)CCN(CC(=O)O)CC2)C[C@@H]1C(=O)NCCn1cc(C23CC(C(=O)Nc4nnc(S(N)(=O)=O)s4)(C2)C3)nn1)C(=O)O)(c1ccc(O)cc1)c1ccc(O)cc1.[Lu+3]` [Compound 108.4], the Kd was 1 to 2.5 nM in assay [1] (setting [3]) and above 10 nM in assay [2] (setting [4]).
In the same order, the values of `CC(CCCC(=O)N1CCC(C(N)=O)(C(=O)NCC(=O)NC2(C(=O)NCCn3cc(C45CC(C(=O)Nc6nnc(S(N)(=O)=O)s6)(C4)C5)nn3)CCN(C(=O)CN3C[C@@H]4CN(C(=O)CN5CCN(CC(=O)O)CCN(CC(=O)O)CCN(CC(=O)O)CC5)C[C@@H]4C3)CC2)CC1)(c1ccc(O)cc1)c1ccc(O)cc1.[Lu+3]` (racemic) [Compound 129.6] are below 1 nM and above 10 nM.
On to `NS(=O)(=O)c1nnc(NC(=O)C23CC(c4cn(CCNC(=O)[C@@H]5CN(C(=O)CN6CCN(CC(=O)O)CCN(CC(=O)O)CCN(CC(=O)O)CC6)CCN5C(=O)C[C@H](Nc5ncc(C(=O)NCc6ccc(S(F)(F)(F)(F)F)cc6)cn5)C(=O)O)nn4)(C2)C3)s1.[Lu+3]` [Compound 111], for which the Kd in assay [1] (read-out: CAIX KD; Chelated Metal: Lu-175; SPR, 25° C., pH 7.4) was 2.5 to 10 nM; in assay [2] (read-out: CAXII KD, Chelated Metal: Lu-175, 25° C., pH 7.4), above 10 nM.
As to `CC(CCC(=O)N[C@@H](CC(=O)N[C@@H](CCC(=O)NC1(C(=O)NCCOCCOCCNC(=O)CN2CCN(CC(=O)O)CCN(CC(=O)O)CCN(CC(=O)O)CC2)CCN(C(=O)Cn2cc(CCCC(=O)Nc3nnc(S(N)(=O)=O)s3)nn2)CC1)C(=O)O)C(=O)O)(c1ccc(O)cc1)c1ccc(O)cc1.[Lu+3]` [Compound 103.2], the dissociation constant (Kd) in assay [1] (setting [3]) lay in the range of 1 to 2.5 nM; in assay [2] (setting [4]) it was 2.5 to 10 nM.
As to `NS(=O)(=O)c1nnc(NC(=O)C23CC(c4cn(CCNC(=O)[C@@H]5CN(C(=O)CN6CCN(CC(=O)O)CCN(CC(=O)O)CCN(CC(=O)O)CC6)CCN5C(=O)C[C@H](NC(=O)C[C@H](NC(=O)Cn5nc(-c6ccc(O)cc6)c6ccc(O)cc65)C(=O)O)C(=O)O)nn4)(C2)C3)s1.[Lu+3]` [Compound 109.34], the figures for the Kd in assay [1] (setting [3]) and in assay [2] (setting [4]) were below 1 nM and 2.5 to 10 nM, respectively.
For `CC(CCC(=O)N[C@@H](CC(=O)N[C@@H](CC(=O)N[C@@H](CCCCn1cc(C23CCC(C(=O)Nc4nnc(S(N)(=O)=O)s4)(CC2)C3)nn1)C(=O)N1CC(NC(=O)CN2CCN(CC(=O)O)CCN(CC(=O)O)CCN(CC(=O)O)CC2)C1)C(=O)O)C(=O)O)(c1ccc(O)cc1)c1ccc(O)cc1.[Lu+3]` [Compound 100.11], the equilibrium dissociation constant (Kd) in assay [1] (setting [3]) and in assay [2] (setting [4]) was below 1 nM each time.
Take `CC(CCCC(=O)N1CCC(C(N)=O)(C(=O)NCC(=O)N2CCN(C(=O)CN3CCN(CC(=O)O)CCN(CC(=O)O)CCN(CC(=O)O)CC3)C[C@H]2C(=O)NCCn2cc(C34CC(c5cn6nc(S(N)(=O)=O)sc6n5)(C3)C4)nn2)CC1)(c1ccc(O)cc1)c1ccc(O)cc1` [Compound 107.53]: the Kd is below 1 nM in assay [1] (Chelated Metal: None; SPR, 25° C., pH 7.4; read-out: CAIX KD) and 2.5 to 10 nM in assay [2] (Chelated Metal: None, 25° C., pH 7.4, read-out: CAXII KD). Besides, the “Ratio (CAXII/CAIX)” value in assay [1] (KD ratio CAXII/CAIX; Chelated Metal: None) was “**** (50 < ****)”.
Take `CC(CCC(=O)N[C@@H](CC(=O)N[C@@H](CC(=O)N[C@@H](CCCCn1cc(C23CCC(C(=O)Nc4nnc(S(N)(=O)=O)s4)(CC2)C3)nn1)C(=O)N1CC2(CN(C(=O)CN3CCN(CC(=O)O)CCN(CC(=O)O)CCN(CC(=O)O)CC3)C2)C1)C(=O)O)C(=O)O)(c1ccc(O)cc1)c1ccc(O)cc1.[Lu+3]` [Compound 100.10]: the Kd in assay [1] (setting [3]) and in assay [2] (setting [4]) was below 1 nM in each case.
As to `CC(CCCC(=O)N1CCC(C(=O)O)(C(=O)NCC(=O)N[C@@H](CCCCn2cc(CCCC(=O)Nc3nnc(S(N)(=O)=O)s3)nn2)C(=O)NCCOCCOCCNC(=O)CN2CCN(CC(=O)O)CCN(CC(=O)O)CCN(CC(=O)O)CC2)CC1)(c1ccc(O)cc1)c1ccc(O)cc1.[Lu+3]` [Compound 102.1], the Kd is below 1 nM in assay [1] (setting [3]) and above 10 nM in assay [2] (setting [4]).
As for `CC(CCCC(=O)N1CCC(C(N)=O)(C(=O)NCC(=O)N2CCN(C(=O)CC[C@H](C(=O)O)N3CCN(CC(=O)O)CCN(CC(=O)O)CCN(CC(=O)O)CC3)C[C@H]2C(=O)NCCn2cc(C34CC(C(=O)Nc5nnc(S(N)(=O)=O)s5)(C3)C4)nn2)CC1)(c1ccc(O)cc1)c1ccc(O)cc1.[Lu+3]` [Compound 127.1], the equilibrium dissociation constant (Kd) was below 1 nM in assay [1] (setting [3]) and above 10 nM in assay [2] (setting [4]).
As for `NS(=O)(=O)c1nnc(NC(=O)C23CC(c4cn(CCNC(=O)[C@@H]5CN(C(=O)CN6CCN(CC(=O)O)CCN(CC(=O)O)CCN(CC(=O)O)CC6)CCN5C(=O)C[C@H](Nc5ncc(C(=O)NCc6ccc(C7CC7)cc6)cn5)C(=O)O)nn4)(C2)C3)s1.[Lu+3]` [Compound 111.3], the values for the Kd in assay [1] (setting [3]) and in assay [2] (setting [4]) were 1 to 2.5 nM and above 10 nM, respectively.
In the same order, the values of `CC(CCCC(=O)N1CCC(C(=O)O)(C(=O)NCC(=O)N2CCN(C(=O)CN3CCN(CC(=O)O)CCN(CC(=O)O)CCN(CC(=O)O)CC3)C[C@H]2C(=O)NCCn2cc(C34CC(C(=O)Nc5nnc(S(N)(=O)=O)s5)(C3)C4)nn2)CC1)(c1ccc(O)cc1)c1ccc(O)cc1.[Lu+3]` [Compound 112.18] are 1 to 2.5 nM and above 10 nM.
For the compound `CC(CCCC(=O)N1CCOC[C@H]1C(=O)N[C@@H](CC(=O)N1CCN(C(=O)CN2CCN(CC(=O)O)CCN(CC(=O)O)CCN(CC(=O)O)CC2)C[C@@H]1C(=O)NCCn1cc(C23CC(C(=O)Nc4nnc(S(N)(=O)=O)s4)(C2)C3)nn1)C(N)=O)(c1ccc(O)cc1)c1ccc(O)cc1.[Lu+3]` [Compound 107.44], the dissociation constant (Kd) in assay [1] (setting [3]) was below 1 nM; in assay [2] (setting [4]), above 10 nM.
As for `CC(CCCC(=O)N1CCOC[C@H]1C(=O)N[C@@H](CC(=O)N1CCN(C(=O)CN2CCN(CC(=O)O)CCN(CC(=O)O)CC2)C[C@@H]1C(=O)NCCn1cc(C23CC(C(=O)Nc4nnc(S(N)(=O)=O)s4)(C2)C3)nn1)C(=O)O)(c1ccc(O)cc1)c1ccc(O)cc1.[Cu+2]` [Compound 126.3], the Kd was below 1 nM in assay [1] (Chelated Metal: Cu (cold); SPR, 25° C., pH 7.4; read-out: CAIX KD) and above 10 nM in assay [2] (Chelated Metal: Cu (cold), 25° C., pH 7.4, read-out: CAXII KD).
Regarding `NS(=O)(=O)c1nnc(NC(=O)C23CC(c4cn(CCNC(=O)[C@@H]5CN(C(=O)CN6CCN(CC(=O)O)CCN(CC(=O)O)CCN(CC(=O)O)CC6)CCN5C(=O)C[C@H](NC(=O)C[C@H](NC(=O)c5n[nH]c6ccc(O)cc56)C(=O)O)C(=O)O)nn4)(C2)C3)s1.[Lu+3]` [Compound 109.31], the dissociation constant Kd in assay [1] (setting [3]) was below 1 nM; in assay [2] (setting [4]) it was 2.5 to 10 nM.
In the same order, the values of `NS(=O)(=O)c1nnc(NC(=O)C23CC(c4cn(CCNC(=O)[C@@H]5CN(C(=O)CN6CCN(CC(=O)O)CCN(CC(=O)O)CCN(CC(=O)O)CC6)CCN5C(=O)C[C@H](NC(=O)C[C@H](NC(=O)c5ccc(C6CC6)cn5)C(=O)O)C(=O)O)nn4)(C2)C3)s1.[Lu+3]` [Compound 109.19] are below 1 nM and 1 to 2.5 nM.
In the same order, the values of `CC(CCC(=O)N[C@@H](CC(=O)N[C@@H](CC(=O)N[C@@H](CCCCn1cc(C23CCC(C(=O)Nc4nnc(S(N)(=O)=O)s4)(CC2)C3)nn1)C(=O)N1CCN(C(=O)CN2CCN(CC(=O)O)CCN(CC(=O)O)CCN(CC(=O)O)CC2)CC1)C(=O)O)C(=O)O)(c1ccc(O)cc1)c1ccc(O)cc1.[Lu+3]` [Compound 100.13] are below 1 nM and below 1 nM.
In the same order, the values of `NS(=O)(=O)c1nnc(NC(=O)C23CCC(c4cn(CCNC(=O)[C@@H]5CN(C(=O)CN6CCN(CC(=O)O)CCN(CC(=O)O)CCN(CC(=O)O)CC6)CCN5C(=O)CC[C@H](NC(=O)C[C@H](NC(=O)CCC(F)(F)F)C(=O)O)C(=O)O)nn4)(CC2)CC3)s1.[Lu+3]` [Compound 109.53] are below 1 nM and below 1 nM.

Values taken from patent US20260325685A1, “Radiopharmaceutical Compositions Targeting Carbonic Anhydrase IX and Uses Thereof” (RayzeBio, Inc., priority 2023, published 2026).
